Test results as given in patent publication US10709724B2, “Methods of treating mitochondrial dysfunction” (Ecole Polytechnique Federale de Lausanne (EPFL), priority 2011, dated 2020).
“Also recorded” adds a separate entry of the source.

How the values were obtained:
C. elegans [1] = experiment: Quantitative RT-PCR in worms; format: in vivo
Procedure: mRNA and mtDNA Analysis. Total RNA was prepared using TRIzol (Invitrogen) according to the manufacturer's instructions. RNA was treated with DNase, and 2 μg of RNA was used for reverse transcription (RT). cDNA was purified on QIAquick PCR cleanup columns (Qiagen, Valencia, Calif., USA). 50× diluted cDNA was used for RT-quantitative PCR (RT-VCR) VCR) reactions (Bai et al., 2007). The RT-qPCR reactions were performed using the Light-Cycler system (Roche Applied Science) and a qPCR Supermix (Qiagen) with the primers for mice summarized in Table 1 and 4, and with the primers for worms summarized on Table 7. mtDNA quantification was performed as described (Lagouge et al., 2006) with the primers indicated in Table 2 and 5.

C. elegans [2] = experiment: NAD measurement by HPLC in worms; format: in vivo; conditions: day 4 of adulthood
Procedure: Worm Respiration Assays Oxygen consumption was measured using the Seahorse XF24 equipment (Seahorse Bioscience Inc., North Billerica, Mass.) as described in Yamamoto et al. Typically, 200 animals per conditions were recovered from NGM plates with M9 medium, washed three times in 2 mLM9 to eliminate residual bacteria, and resuspended in 500 μL M9 medium. Worms were transferred in 24-well standard Seahorse plates (#100777-004) (50 worms per well) and oxygen consumption was measured 6 times. Respiration rates were normalized to the number of worms in each individual well. NAD measurement by HPLC For NAD+ quantification, approximately 1000 worms were collected in M9 buffer, washed five times to remove residual bacteria and flash-frozen in liquid nitrogen and stored at −80° C. until analysis. Extraction was started by adding 250 μl of 1.6M perchloric acid on frozen samples, followed by extensive homogenization in a Qiagen tissuelyser, and centrifugation at 20.000 g for 15 min. The supernatant was recovered and neutralized with a 3M potassium carbonate solution. […]

GPR109A = biological target: T1, GPR109A (Homo sapiens, UniProt Q8TDS4); format: cell-based; conditions: GPR109A-expressing Chem-4 cells
T1 construct: host or cells: Chem-4 cells (Ready-to-Assay GPR109A Nicotinic Acid Receptor Cells)
Procedure: GPR109A—Calcium Mobilization Assay. Ready-to-Assai™ GRP109A Nicotinic Acid Receptor Cells were used to measure calcium mobilization as specified by the manufacturer (Millipore). Calcium flux was determined using excitation at 340 and 380 nm in a fluorescence spectrophotometer (Victor X4, Perkin Elmer) in a 180 seconds time course, adding the ligand at 60 seconds. Internal validation was made using 0.1% Triton X-100 for total fluorophore release and 10 mM EGTA to chelate free calcium. Similarly, GPR109A specificity was internally validated using control cells devoid of GRP109A overexpression. Liver triglyceride measurement Liver triglycerides were measured from 20 mg of liver tissue using a variation of the Folch method, as described in Bai et al. (Bai et al., PARP-2 regulates SIRT1 expression and whole-body energy expenditure. (2011). Cell Metab 13, 450-460.

C2C12 myotubes = experiment: Oxygen consumption in cultured C2C12 myotubes; format: cell-based
Procedure: Oxygen Consumption in Cultured Cells. Cellular O2 consumption was measured using a Seahorse bioscience XF24 analyzer with […] biological replicates per condition, in 24 well plates at 37° C., exactly as described (Canto et al., 2009). C2C12 were infected with an adenovirus encoding for FLAG-HA-PGC-1 and either scramble or SIRT1 shRNAs 48 h previous to O2 consumption measurements. Then myotubes were treated with 1 μM PJ34 for 48 h. In order to measure the contribution of fatty acid oxidation to global O2 consumption, total cellular O2 consumption was measured for 6 successive 2 min measurements at 5 min intervals. Then, 50 μl of etomoxir (1 M; Calbiochem, San Diego, Calif., USA) were added and, after […], 6 successive 2 min measurements were performed at 5 min intervals. The remaining O2 consumption was attributed to non-lipid substrates, while the difference with the initial O2 consumption values was considered due to fatty acid oxidation.

T1 sequence (Q8TDS4 whole entry): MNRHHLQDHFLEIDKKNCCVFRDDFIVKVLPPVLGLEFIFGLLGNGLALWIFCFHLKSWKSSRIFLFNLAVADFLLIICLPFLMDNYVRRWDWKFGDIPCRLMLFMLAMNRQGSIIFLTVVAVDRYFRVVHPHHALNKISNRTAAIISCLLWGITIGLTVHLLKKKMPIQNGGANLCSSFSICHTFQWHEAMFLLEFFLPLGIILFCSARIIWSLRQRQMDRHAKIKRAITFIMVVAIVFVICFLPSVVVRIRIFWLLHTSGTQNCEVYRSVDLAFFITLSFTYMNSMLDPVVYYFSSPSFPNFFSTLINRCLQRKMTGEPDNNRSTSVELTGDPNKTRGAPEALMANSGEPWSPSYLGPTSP

Row | GPR109A activation (calcium flux) (GPR109A) | SMILES | expression of genes of mitochondrial oxidative metabolism (cts-1, cox-4) (C. elegans [1]; day 3 of adulthood) | daf-16 expression (C. elegans [1]; in vivo) | sod-3 expression (C. elegans [1]; in vivo) | NAD+ levels in C. elegans (C. elegans [2]) | O2 consumption rates (C2C12 myotubes; 1 μM PJ34, 48 h) | O2 consumption with SIRT1 knock-down (C2C12 myotubes; SIRT1 shRNA) | substrate contribution to the increase in O2 consumption (C2C12 myotubes; etomoxir)
1 | did not activate GPR109A | NC(=O)c1ccc[n+]([C@@H]2O[C@H](CO)[C@@H](O)[C@H]2O)c1 [NR, nicotinamide riboside] | trend for increased cts-1 expression | without affecting daf-16 mRNA levels | significantly higher sod-3 expression | increased NAD+ levels; also recorded: increases |  |  | 
2 |  | CN(C)CC(=O)Nc1ccc2[nH]c(=O)c3ccccc3c2c1 [PJ34] |  |  |  |  | enhanced oxidative metabolism | largely blunted | combination of enhanced oxidation of lipid and non-lipid substrates
